In patent US20120094985A1, “PHARMACEUTICAL COMPOSITIONS COMPRISING CHLOROPHENYL PIPERAZINE DERIVED COMPOUNDS AND USE OF THE COMPOUNDS IN PRODUCING MEDICAMENTS” (KAOHSIUNG MEDICAL UNIVERSITY, priority 2009, published 2012):

Assays:
Male ddk mice = test: Forced swim test (FST), mean immobility time; assay type: in vivo, mouse; details: for immobility period in FST: 4 mg/kg each (FIG. 2)
Method: Male ddk mice weighing between 22 and 30 g, bred in the Center Animal House facility of Kaohsiung Medical University (KMU), Taiwan, were used. These experimental animals were housed under standard laboratory conditions and maintained on natural light and dark cycle, and had free access to food and water. Animals were acclimatized to laboratory conditions before the experiment. Each animal was used only once. All the experiments were carried out between 9 a.m. and 3 p.m. The experimental protocols were approved by the Animal Center of KMU, Taiwan.
Forced swim would induce immobility of an animal to simulate the phenomenon of human depression (Renard et al., 2003) and antidepressant was used to reverse this phenomenon (Kulkarni and Mehta, 1985). This test procedure was carried out according to the previous animal model (Reddy et al., 1998).
The doses of the drugs used were selected according to the previous studies (Patil et al., 2005). Different doses were administrated intraperitoneally in a fixed volume of 1 ml/100 g body weight for 30 minutes before the animals were subjected to test.
The possible participation of the NO/cGMP pathway in the antidepressant effect of Pulmodil was investigated. Mice were pretreated with NO/cGMP pathway regulation related drugs ([…], L-arginine, methylene blue or 7-nitroindazole), and then Pulmodil or vehicle was injected to the animal. Forced swim test was performed 30 minutes later.
The possible participation of the 5-HT pathway in the antidepressant effect of Pulmodul was investigated. Mice were pretreated with 5-HT pathway related drugs (DOI, m-CPP or SB200646), and then Pulmodil or vehicle was injected to the animal. Forced swim test was performed 30 minutes later.
Results expressed as mean (sec.)±S.E.M. and the data was analyzed using One-Way or Two-Way Analysis of Variance (ANOVA) where appropriate. If any statistically significant change was found, post-hoc comparisons were performed using a Dunnett's test. Data was deemed significant when P<0.05 was considered statistically significant.

[1] = test system: Male ddk mice pre-treated with Reserpine; test: Reserpine-induced forced swimming immobility; assay type: in vivo, mouse; details: for Reserpine-induced immobility: Reserpine 2 mg/kg pre-treatment, then 4 mg/kg, p<0.05 (FIG. 4)
Method: Male ddk mice weighing between 22 and 30 g, bred in the Center Animal House facility of Kaohsiung Medical University (KMU), Taiwan, were used. […] Animals were acclimatized to laboratory conditions before the experiment. Each animal was used only once. All the experiments were carried out between 9 a.m. and 3 p.m. […] This test procedure was carried out according to the previous animal model (Reddy et al., 1998). […] Mice were pretreated with NO/cGMP pathway regulation related drugs (Reserpine, L-arginine, methylene blue or 7-nitroindazole), and then Pulmodil or vehicle was injected to the animal. Forced swim test was performed 30 minutes later.

[2] = test system: cGMP concentration of mouse brain; test: cGMP analysis of mouse brain (ELISA); assay type: in vivo; details: 30 minutes post injection, basal (vehicle) 0.131±0.003
Method: Male mice were given Pulmodil with intraperitoneal (i.p.) injection, where mice were divided into three groups, and 0.5, 1 and 2 mg/kg Pulmodil respectively for each group. After 30-minute injection, mice were anesthetized with […] chloral hydrate, and then were fixed on the stereotaxic frame (Narishige, Japan) to obtain mice brain. The isolated brain was homogenized and extracted with 0.1 N HCl. The extract was centrifuged at 4° C., at 14,000 rpm for 30 minutes, and supernatant was collected to determine cGMP concentration, which was determined with commercial enzyme-linked immunosorbent assay (ELISA) kit (Assay Designs) by acetylation procedure.

Structure (SMILES): CCCc1nn(C)c2c(=O)[nH]c(-c3cc(S(=O)(=O)N4CCN(C)CC4)ccc3OCC)nc12 [Sildenafil, reference compound]
- immobility period in FST (Male ddk mice): could not significantly affect immobility time
- Reserpine-induced immobility [1]: significantly inhibited

Structure (SMILES): Clc1cccc(N2CCNCC2)c1 [m-CPP, meta-chlorophenylpiperazine, reference compound]
- immobility time per se (Male ddk mice; m-CPP 4 mg/kg i.p. alone, p<0.05 vs vehicle (FIG. 9)): mildly increased the immobility time

Structure (SMILES): CN(C)c1ccc2nc3ccc(=[N+](C)C)cc-3sc2c1 [Methylene blue, methylene blue, reference compound]
- immobility time per se (Male ddk mice; methylene blue 10 mg/kg i.p. alone (FIG. 6)): did not affect the immobility time

Structure (SMILES): COC(=O)[C@H]1[C@H]2C[C@@H]3c4[nH]c5cc(OC)ccc5c4CCN3C[C@H]2C[C@@H](OC(=O)c2cc(OC)c(OC)c(OC)c2)[C@@H]1OC [Reserpine]
- immobility period in mouse FST, Reserpine alone ([1]; Reserpine 2 mg/kg, p<0.05 (FIG. 3)): increased immobility period

Structure (SMILES): COc1cc(CC(C)N)c(OC)cc1I (stereo not drawn) [DOI, 1-(2,5-dimethoxy-4-iodophenyl)-2-aminopropane, reference compound]
- immobility per se (Male ddk mice; DOI 4 mg/kg i.p. alone (FIG. 8)): did not affect the immobility

Structure (SMILES): O=c1n(CCCN2CCN(c3cccc(Cl)c3)CC2)nc2ccccn12 [Trazodone, reference compound]
- immobility period in FST (Male ddk mice): significantly decreased the immobility period
- Reserpine-induced immobility [1]: significantly inhibited

Structure (SMILES): Cl.Cn1ccc2cc(NC(=O)Nc3cccnc3)ccc21 [SB200646, N-(1-methyl-1H-5-indolyl)-N′-(3-pyridinyl)urea hydrochloride, reference compound]
- immobility time per se (Male ddk mice; SB200646 4 mg/kg i.p. alone (FIG. 10)): did not affect the immobility time

Structure (SMILES): Cn1c(=O)c2c(ncn2CCN2CCN(c3ccccc3Cl)CC2)n(C)c1=O [xanthine-based compound, 7-[2-[4-(2-chlorophenyl)piperazinyl]ethyl]-1,3-dimethylxanthine]
- immobility period after Reserpine pre-treatment ([1]; Reserpine 2 mg/kg for 4 hours, then 2, 3, 4 or 8 mg/kg, p<0.05 vs Reserpine (FIG. 3)): dose-dependently reduced the immobility period
- Reserpine-induced immobility [1]: significantly inhibited

Structure (SMILES): Cl.Cn1c(=O)c2c(ncn2CCN2CCN(c3ccccc3Cl)CC2)n(C)c1=O [Pulmodil, 7-[2-[4-(2-chlorophenyl)piperazinyl]ethyl]-1,3-dimethylxanthine.acid]
- cGMP concentration in the brain ([2]; 0.5 mg/kg i.p.): 0.201 ± 0.003 fmol/µg
- cGMP concentration in the brain ([2]; 1 mg/kg i.p.): 0.293 ± 0.023 fmol/µg
- cGMP concentration in the brain ([2]; 2 mg/kg i.p.): 0.288 ± 0.0234 fmol/µg
- immobility period in mouse FST (Male ddk mice; 4, 8 and 16 mg/kg, compared with vehicle, p<0.05 (FIG. 1)): produced a decrease in immobility period
- immobility time after 7-nitroindazole pre-treatment (Male ddk mice; 7-nitroindazole 25 mg/kg i.p. for 30 minutes, then Pulmodil 8 mg/kg i.p., P<0.05 (FIG. 7)): shortened the immobility time
- immobility time after DOI pre-treatment (Male ddk mice; DOI 4 mg/kg i.p. for 30 minutes, then Pulmodil 4 or 8 mg/kg i.p., in comparison with FIG. 1, p<0.05 (FIG. 8)): prolonged the immobility time
- immobility period after L-arginine pre-treatment (Male ddk mice; L-arginine 750 mg/kg i.p. for 30 minutes, then Pulmodil 16 mg/kg i.p., compared to Pulmodil without L-arginine (FIG. 5)): increase in immobility period
- immobility time after SB200646 pre-treatment (Male ddk mice; SB200646 4 mg/kg i.p., then Pulmodil 4 or 8 mg/kg i.p., p<0.05 (FIG. 10)): significantly reduced this immobility time
- immobility time after m-CPP pre-treatment (Male ddk mice; m-CPP 4 mg/kg i.p., then Pulmodil 4 or 8 mg/kg i.p., in comparison with FIG. 1, p<0.05 (FIG. 9)): shortened this immobility time
- immobility time after methylene blue pre-treatment (Male ddk mice; methylene blue 10 mg/kg i.p. for 30 minutes, then Pulmodil 8 mg/kg i.p., p<0.05 (FIG. 6)): significantly decreased the immobility time
